Data from patent publication US20250352561A1, “COMPOSITIONS AND METHODS USING TETRAHYDROCANNABINOL AND COMPOSITIONS INCLUDING SAME FOR TREATING INDICATIONS INVOLVING INFLAMMATION” (priority 2023, published 2025).
Structures can show the parent of a compound that is named as a salt. Where two headings read alike, the source gives them in different places.

Experiments:
[1] = cited from earlier work
[2] = system: COVID-19 patients who required supplemental oxygen; assay: Retrospective clinical study of dronabinol plus standard of care in hospitalized COVID-19 patients requiring oxygen (Example 1); assay type: in vivo, human
[3] = cited from earlier work; remark: listed apart in the source
cytokine storm = settings: cited from earlier work
[4] = fasted, n=34, cited from earlier work
[5] = in vivo; cited from earlier work
[6] = system: COVID-19-positive patients hospitalized for hypoxia; assay: Comparative analysis of dronabinol alone vs dronabinol plus fluvoxamine in COVID-19-positive patients hospitalized for hypoxia (Example 8, Table 6)
Description: From October 2020 through December of 2020 a single infectious disease specialist treated consecutive adult COVID-19-positive patients hospitalized for hypoxia with oral dronabinol in addition to then current standard of care which consisted of ceftriaxone, azithromycin, dexamethasone, remdesivir, subcutaneous heparin, and convalescent plasma in addition to respiratory support per standard ICU protocols. Nine patients received 2.5 mg twice orally daily and 68 patients received 5 mg orally twice daily. A retrospective control group of consecutively treated COVID-19-positive patients hospitalized for hypoxia from June 2020 through August 2020, was treated with the same standard of care.
15, 2021, twelve consecutive un-vaccinated COVID-19-positive patients hospitalized for hypoxia were treated by a single physician. They received current standard of care which consisted of ceftriaxone, azithromycin, dexamethasone, remdesivir, and Eliquis in addition to respiratory support per standard ICU protocols. […] One patient was excluded from analysis due to pre-COVID-19 oxygen dependence, and because they were still in the hospital as of this writing on their twelfth hospital day.

[7] = cited from earlier work; remark: listed apart in the source
serotonin uptake = settings: in vitro, rats; cited from earlier work
norepinephrine reuptake = settings: in vitro, rats; cited from earlier work
[8] = human, in vivo; cited from earlier work
[9] = system: plasma protein, mostly albumin; settings: concentration range of 20 to 2000 ng/mL, cited from earlier work
[10] = cited from earlier work; for Multiple dose elimination half-life: steady state
[11] = hepatic dysfunction vs healthy subjects, cross study comparison; cited from earlier work
[12] = system: neuronal uptake of serotonin; settings: in vitro as well as in vivo; cited from earlier work
histaminergic receptors = settings: in vitro; cited from earlier work
[13] = system: alpha adrenergic receptors; settings: in vitro; cited from earlier work
[14] = system: beta adrenergic receptors; settings: in vitro; cited from earlier work
muscarinic receptors = settings: in vitro; cited from earlier work
dopaminergic receptors = settings: in vitro; cited from earlier work
[15] = biological target: sigma-1 non-opioid receptor (Homo sapiens, UniProt Q99720); settings: compared with all pharmaceutical chemicals tested so far; cited from earlier work
Sequence of sigma-1 non-opioid receptor (Q99720 whole entry): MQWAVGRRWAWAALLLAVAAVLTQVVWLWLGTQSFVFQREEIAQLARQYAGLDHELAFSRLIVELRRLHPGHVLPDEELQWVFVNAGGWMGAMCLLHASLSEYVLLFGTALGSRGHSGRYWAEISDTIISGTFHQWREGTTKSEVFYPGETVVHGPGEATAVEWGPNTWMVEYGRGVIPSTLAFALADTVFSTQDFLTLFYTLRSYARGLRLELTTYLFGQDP

**Q.** Which “Plasma concentration of principal active metabolite relative to Δ9-THC” value ([1]; plasma) does the source give for `CCCCCc1cc(O)c2c(c1)OC(C)(C)[C@@H]1CCC(CO)=C[C@@H]21` [11-OH-delta-9-THC] here?
**A.** approximately equal concentrations

**Q.** For `CCCCCc1cc(O)c2c(c1)OC(C)(C)[C@@H]1CCC(C)=C[C@@H]21` [dronabinol, (−)-(6aR,10aR)-6,6,9-trimethyl-3-pentyl-6a,7,8,10a-tetrahydro-6H-benzo[c]-chromen-1-ol], which Deaths ([2]; among the 77 patients in the treatment group) is on record?
**A.** 5

**Q.** And the “Average first peak C-reactive protein (CRP) levels, difference (lower in treatment group)” value ([2]; vs control, p-value of 0.07, not statistically significant)?
**A.** 14%

**Q.** What about the “Duration of appetite stimulant effect” value ([3]; after administration) of the same molecule?
**A.** ≥ 24 h

**Q.** And the “Time to tolerance to cardiovascular and subjective adverse CNS effects” value ([3]; healthy male volunteers (N=12), 210 mg/day orally in divided doses for 16 days)?
**A.** ≤ 12 days

**Q.** And the “Persistence of appetite stimulant effect” value ([3]; patients with AIDS, Δ9-THC capsules 2.5 mg/day to 20 mg/day)?
**A.** sustained for up to five months

**Q.** What about the Mortality (cytokine storm; animal model of cytokine storm induced ARF and/or ARDS) of the same molecule?
**A.** decrease mortality

**Q.** And the “Prevention of death of animals that received a fatal dose of the biotoxin” value (cytokine storm; animal models)?
**A.** prevent the death of one hundred percent of all animals

**Q.** And the “AUC (0-12), Mean (SD)” value ([4]; BID Dose 2.5 mg)?
**A.** 2.88 (1.57) ng*hr/mL

**Q.** What about the “Cmax, Mean (SD)” value ([4]; BID Dose 2.5 mg) of the same molecule?
**A.** 1.32 (0.62) ng/mL

**Q.** What about the “Median Tmax (range)” value ([4]; BID Dose 2.5 mg) of the same molecule?
**A.** 1.00 (0.50-4.00) hr

**Q.** And the “AUC (0-12), Mean (SD)” value ([4]; BID Dose 5 mg)?
**A.** 6.16 (1.85) ng*hr/mL

**Q.** What about the “Cmax, Mean (SD)” value ([4]; BID Dose 5 mg) of the same molecule?
**A.** 2.96 (1.81) ng/mL

**Q.** And the “Median Tmax (range)” value ([4]; BID Dose 5 mg)?
**A.** 2.50 (0.50-4.00) hr

**Q.** What about the “AUC (0-12), Mean (SD)” value ([4]; BID Dose 10 mg) of the same molecule?
**A.** 15.2 (5.52) ng*hr/mL

**Q.** What about the “Cmax, Mean (SD)” value ([4]; BID Dose 10 mg) of the same molecule?
**A.** 7.88 (4.54) ng/mL

**Q.** And the “Median Tmax (range)” value ([4]; BID Dose 10 mg)?
**A.** 1.50 (0.50-3.50) hr

**Q.** And the “Time for which low levels of metabolites are detected in urine and feces” value ([1]; following single dose administration)?
**A.** more than 5 weeks

**Q.** What about the “Oral dose recovered unchanged in the feces” value ([1]; in vivo, po) of the same molecule?
**A.** Less than 5%

**Q.** What about the “Administered dose reaching the systemic circulation” value ([1]; oral dose) of the same molecule?
**A.** 10-20%

**Q.** What about the “Absorbed after oral dose” value ([1]; single oral doses) of the same molecule?
**A.** 90-95%

**Q.** What about the “Initial (alpha) half-life” value ([1]; two-compartment model) of the same molecule?
**A.** about 4 hours

**Q.** And the “Radio-labeled oral dose recovered from the feces” value ([1]; within 72 hours)?
**A.** about half

**Q.** What about the “Reported fatality from overdosage” value [5] of the same molecule?
**A.** has not had a reported fatality from overdosage

**Q.** And the “# Survived” value ([6]; 2.5 mg Dronabinol, total 9 in group)?
**A.** 8

**Q.** What about the LOS ([6]; 5 mg Dronabinol, length of hospital stay) of the same molecule?
**A.** 8.8

**Q.** And the “# Survived” value ([6]; 5 mg Dronabinol, total 68 in group)?
**A.** 64

**Q.** Which “Share of urinary excretion products” value ([7]; fluvoxamine acid together with its N-acetylated analog) does the source give for `NCCO/N=C(\CCCC(=O)O)c1ccc(C(F)(F)F)cc1` [fluvoxamine acid] here?
**A.** about 60%

**Q.** What about the “Inhibition of serotonin uptake” value (serotonin uptake) of the same molecule?
**A.** weak effect

**Q.** What about the “Potency relative to the parent compound (less potent)” value (serotonin uptake) of the same molecule?
**A.** 1-2 orders of magnitude

**Q.** And the Norepinephrine reuptake inhibition (norepinephrine reuptake)?
**A.** inactive

**Q.** With `COCCCC/C(=N\OCCO)c1ccc(C(F)(F)F)cc1` [fluvoxamine ethanol] as the molecule, how does the “Share of urinary excretion products” value ([7]; fluvoxamine ethanol) read?
**A.** about 10%

**Q.** Which “Time of maximum plasma concentrations at steady state” value [8] does the source give for `COCCCC/C(=N\OCCN)c1ccc(C(F)(F)F)cc1` [fluvoxamine maleate] here?
**A.** 3 to 8 h

**Q.** What does the source list for `COCCCC/C(=N\OCCN)c1ccc(C(F)(F)F)cc1` [fluvoxamine, 2-[(E)-[5-methoxy-1-[4-(trifluoromethyl)phenyl]pentylidene]amino]oxyethanamine]?
**A.** Bound to plasma protein [9]: Approximately 80%; Bound to plasma protein ([9]; listed as Fluvoxamine): 80%; Reduction of clearance ([10]; elderly patients): about 50%; Multiple dose elimination half-life ([10]; elderly, 50 mg): 17.4 h; Multiple dose elimination half-life ([10]; elderly, 100 mg): 25.9 h; Multiple dose elimination half-life ([10]; young subjects, 50 mg): 13.6 h; Multiple dose elimination half-life ([10]; young subjects, 100 mg): 15.6 h; Decrease in clearance [11]: 30%; Serotonin reuptake inhibition [12]: potent serotonin reuptake inhibitor; Affinity for histaminergic receptors (histaminergic receptors): no significant affinity; Affinity for alpha adrenergic receptors [13]: no significant affinity; Affinity for beta adrenergic receptors [14]: no significant affinity; Affinity for muscarinic receptors (muscarinic receptors): no significant affinity; Affinity for dopaminergic receptors (dopaminergic receptors): no significant affinity; Agonistic sigma-1 binding affinity [15]: strongest agonistic sigma-1 binding affinity; Mean plasma half-life at steady state ([7]; human, in vivo, po): 15.6 h; Excreted in urine unchanged ([7]; in vivo): Approximately 2%
